The text below walks through data of BindingDB's records for doi:10.1021/jm801475n (University of Dundee, 2009).

Molecules are shown by their SMILES.

For the experiment, the target named is T1, 2-C-methyl-D-erythritol 2,4-cyclodiphosphate synthase (Escherichia coli (strain K12), UniProt P62617).
T1 sequence (P62617 whole entry): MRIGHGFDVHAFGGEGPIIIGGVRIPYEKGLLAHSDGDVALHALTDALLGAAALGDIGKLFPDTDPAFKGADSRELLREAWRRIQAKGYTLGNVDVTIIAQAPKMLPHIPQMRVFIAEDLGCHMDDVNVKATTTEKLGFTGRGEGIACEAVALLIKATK
The experiment in a line: SPR Biosensor Assay. Conditions: pH 7; 10 °C. The procedure: An SPR assay was used to determine the binding affinities of compounds. Experiments were performed on a Biacore 3000 (Biacore, Uppsala, Sweden) instrument with CM5 research grade chips (Biacore, Uppsala, Sweden). Sensorgrams were recorded at a frequency of 2.5 Hz. EcIspF was immobilized using amine-coupling chemistry with readings between 4500 and 5500 response units were obtained. After immobilization, a 6 min injection at 5 uL min-1 of 1 M ethanolamine was used to quench excess active succinamide ester groups. SPR binding experiments with EcIspF were performed at 10 deg C in 50 mM sodium phosphate pH 7 and 2 mM MgCl2 at a flow rate of 30 uL min-1. The sensor surface was regenerated between experiments by applying the running buffer for 20 min to dissociate any ligand complex. This was followed by a further 20 min stabilization period. The 40 min total regeneration time between experiments helped to eliminate any carry-over of EcIspF bound to ligand. Each injection at a given concentration was repeated three times. Blank injections were included for each measurement series and subtracted from the data. The equilibrium (steady state) binding curves were analyzed by nonlinear regression and fit to a one-to-one Langmuir binding model. All ligands assessed by SPR were greater than 95% purity as established by high-performance liquid chromatography or combustion analysis.

For the compound `N[C@@H](Cc1c[nH]c2ccccc12)C(=O)NO` [Tryptophanhydroxamate, 13], binding was characterised by a dissociation constant (Kd) of 1920 nM.
